pIC50: −log10 of the molar value.
The compounds below were run against myeloperoxidase (MPO) (Homo sapiens (Human), UniProt P05164) (assay: MPO chlorination assay (APF)). Settings: MPO chlorination assay, ranges given; read-out: MPO chlorination assay IC50.
Type: biochemical
Protocol: MPO chlorination activity was measured in 100 mM KPi (pH 7.4) by utilizing the non-fluorescent reagent Aminophenyl fluorescein (APF, Invitrogen catalog #A36003). APF is cleaved by (—OCl) to yield the fluorescent compound fluorescein. Reactions were carried out in 50 μL total volume by adding a 25 μL mixture of 200 pM myeloperoxidase and 120 mM NaCl to 100 nL inhibitor in 100% DMSO in a 384 well, non-binding surface clear bottom plate (CORNING® #3655). Enzyme, inhibitor, and chloride were preincubated for ten minutes at rt.
After the ten minute preincubation, 25 μL of an APF mixture containing […], 120 mM NaCl and 10 μM H2O2 was added to the plate using the internal dispensing system of a Hammatsu FDSS 6000. Kinetic determinations were carried out immediately on the FDSS 6000 (3 minute kinetic read, 1 read every second, ex: 485 nm, em: 535 nm). IC50 values for inhibitors were calculated by taking the slope of the linear portion of the kinetic measurement (20 seconds to ˜80-120 secs). […]
[formula] where A=minimal Y value (activity level of inhibited sample), B=maximal Y value (activity level of uninhibited sample), C=Log IC50, D=Hill Slope, x=concentration of inhibitor. EPX Bromination Assay

Sequence of myeloperoxidase (MPO) (P05164 49-745): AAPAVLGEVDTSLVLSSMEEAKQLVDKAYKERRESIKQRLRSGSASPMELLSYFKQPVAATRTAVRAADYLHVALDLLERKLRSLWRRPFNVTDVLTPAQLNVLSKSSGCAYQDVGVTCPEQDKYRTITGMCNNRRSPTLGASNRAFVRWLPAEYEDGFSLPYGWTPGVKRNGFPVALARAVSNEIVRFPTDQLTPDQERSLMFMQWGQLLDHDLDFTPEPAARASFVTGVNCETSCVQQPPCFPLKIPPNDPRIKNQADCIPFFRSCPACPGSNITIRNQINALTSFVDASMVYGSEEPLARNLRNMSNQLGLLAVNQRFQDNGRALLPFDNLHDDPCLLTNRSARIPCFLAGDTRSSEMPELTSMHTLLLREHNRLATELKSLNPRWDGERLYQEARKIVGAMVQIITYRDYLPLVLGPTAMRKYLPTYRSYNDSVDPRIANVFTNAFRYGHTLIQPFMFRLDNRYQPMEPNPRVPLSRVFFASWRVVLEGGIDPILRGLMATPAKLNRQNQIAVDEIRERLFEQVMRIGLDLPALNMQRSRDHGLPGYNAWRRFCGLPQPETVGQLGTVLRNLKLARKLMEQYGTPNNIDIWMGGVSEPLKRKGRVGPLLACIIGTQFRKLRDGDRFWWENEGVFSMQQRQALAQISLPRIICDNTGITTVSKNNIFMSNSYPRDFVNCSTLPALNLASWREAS

Row | SMILES | pIC50
1 | Cn1nc(CSc2cc(N)nc3[nH]nnc23)cc1-c1ccccc1 [Example 103, 7-(((1-methyl-5-phenyl-1H-pyrazol-3-yl)methyl)thio)-3H-[1,2,3]triazolo[4,5-b] pyridin-5-amine] | 6.70 to 7.22
2 | N#Cc1ccc(-c2ccncc2)c(CSc2cc(N)nc3[nH]nnc23)c1 [Example 130, 3-(((5-Amino-3H-[1,2,3]triazolo[4,5-b]pyridin-7-yl)thio)methyl)-4-(pyridin-4-yl)benzonitrile] | ≥ 7.22
3 | Nc1cc(SCc2ccccc2OC(F)(F)F)c2nn[nH]c2n1 [Example 29, 7-((2-(trifluoromethoxy)benzyl)thio)-3H-[1,2,3] triazolo[4,5-b]pyridin-5-amine] | ≥ 7.22
4 | Nc1cc(SCc2ccccc2)c2nn[nH]c2n1 [Example 1, 7-(Benzylthio)-3H-[1,2,3]triazolo[4,5-b]pyridin-5-amine] | ≥ 7.22
5 | Nc1cc(SCc2cn(-c3ccccn3)nc2C(F)(F)F)c2nn[nH]c2n1 [Example 135, 7-(((1-(pyridin-2-y1)-3-(trifluoromethyl)-1H-pyrazol-4-yl)methyl)thio)-3H-[1,2,3] triazolo[4,5-b]pyridin-5-amine] | ≥ 7.22
6 | N#Cc1ccc(CSc2cc(N)nc3[nH]nnc23)c(C2CC2)c1 [Example 133, 4-(((5-amino-3H-[1,2,3]triazolo[4,5-b]pyridin-7-yl)thio)methyl)-3-cyclopropylbenzonitrile] | ≥ 7.22
7 | N#Cc1ccc(F)c(CSc2cc(N)nc3[nH]nnc23)c1 [Example 123, 3-(((5-amino-3H-[1,2,3]triazolo[4,5-b]pyridin-7-yl)thio)methyl)-4-fluorobenzonitrile] | 6.70 to 7.22
8 | Nc1cc(SCc2cc(-c3ccccc3)on2)c2nn[nH]c2n1 [Example 101, 7-(((5-phenylisoxazol-3-yl)methyl)thio)-3H-[1,2,3] triazolo[4,5-b]pyridin-5-amine] | 6.70 to 7.22
9 | Nc1cc(SC(c2ccccc2)C(O)c2ccccc2)c2nn[nH]c2n1 (stereo not drawn) [Example 46, 2-((5-amino-3H-[1,2,3]triazolo[4,5-b]pyridin-7-yl)thio)-1,2-diphenylethanol] | 6.70 to 7.22
10 | Cc1ccc(-c2nc(CSc3cc(N)nc4[nH]nnc34)c(C)s2)cc1 [Example 22, 7-(((5-methyl-2-(p-tolyl)thiazol-4-yl)methyl)thio)-3H-[1,2,3]triazolo[4,5-b]pyridin-5-amine] | 6.70 to 7.22
11 | Nc1cc(SCc2c(Cl)ccnc2Cl)c2nn[nH]c2n1 [Example 48, 7-(((2,4-dichloropyridin-3-yl)methyl)thio)-3H-[1,2,3] triazolo[4,5-b]pyridin-5-amine] | 6.70 to 7.22
12 | Cc1nn(-c2ccccc2)c(Cl)c1CSc1nc(N)nc2[nH]nnc12 [Example 156, 7-(((5-chloro-3-methyl-1-phenyl-1H-pyrazol-4-yl)methyl)thio)-3H-[1,2,3] triazolo[4,5-b]pyrimidin-5-amine] | 6.70 to 7.22
13 | N#Cc1ccc(OC(F)F)cc1CSc1cc(N)nc2[nH]nnc12 [Example 109] | ≥ 7.22
14 | Nc1nc(SCc2ccccc2-n2cccn2)c2nn[nH]c2n1 [Example 158, 7-((2-(1H-pyrazol-1-yl)benzyl)thio)-3H-[1,2,3] triazolo[4,5-d]pyrimidin-5-amine] | 6.00 to 6.70
15 | Nc1cc(SCc2ccccc2CN2CCOCC2)c2nn[nH]c2n1 [Example 94, 7-((2-(morpholinomethyl)benzyl)thio)-3H-[1,2,3] triazolo[4,5-b]pyridin-5-amine] | 6.70 to 7.22
16 | CN(C)Cc1ccccc1CSc1cc(N)nc2[nH]nnc12 [Example 96, 7-((2-((dimethylamino)methyl)benzyl)thio)-3H-[1,2,3]triazolo[4,5-b]pyridin-5-amine] | 6.70 to 7.22
17 | CN(C)CCNC(=O)c1ccccc1-n1cc(CSc2cc(N)nc3[nH]nnc23)c(C(F)F)n1 [Example 151, 2-(4-(((5-amino-3H-[1,2,3]triazolo[4,5-b]pyridin-7-yl)thio)methyl)-3-(difluoromethyl)-1H-pyrazol-1-yl)-N-(2-(dimethylamino)ethyl) benzamide] | ≥ 7.22
18 | Nc1cc(SCc2cn(-c3ccccc3)nc2C2CC2)c2nn[nH]c2n1 [Example 134, 7-(((3-Cyclopropyl-1-phenyl-1H-pyrazol-4-yl)methyl)thio)-3H-[1,2,3]triazolo[4,5-b]pyridin-5-amine] | ≥ 7.22
19 | N#Cc1cc(F)ccc1CSc1cc(N)nc2[nH]nnc12 [Example 56, 2-(((5-amino-3H-[1,2,3]triazolo[4,5-b]pyridin-7-yl)thio)methyl)-5-fluorobenzonitrile] | ≥ 7.22
20 | Nc1cc(SCc2cn(C3CCCCC3)nc2C(F)(F)F)c2nn[nH]c2n1 [Example 115, 7-(((1-cyclohexyl-3-(trifluoromethyl)-1H-pyrazol-4-yl)methyl)thio)-3H-[1,2,3]triazolo[4,5-b] pyridin-5-amine] | 6.70 to 7.22

Row | SMILES | pIC50
21 | N#Cc1cccc(-n2ccnc2)c1CSc1cc(N)nc2[nH]nnc12 [Example 131, 2-(((5-amino-3H-[1,2,3]triazolo[4,5-b]pyridin-7-yl)thio)methyl)-3-(1H-imidazol-1-yl)benzonitrile] | 6.00 to 6.70
22 | Nc1cc(SCc2cnn(-c3ccccc3)c2C(F)(F)F)c2nn[nH]c2n1 [Example 114, 7-(((1-phenyl-5-(trifluoromethyl)-1H-pyrazol-4-yl)methyl)thio)-3H-[1,2,3]triazolo[4,5-b] pyridin-5-amine] | 6.70 to 7.22
23 | Nc1cc(SCc2cn(-c3ccccc3)nn2)c2nn[nH]c2n1 [Example 34, 7-(((1-phenyl-1H-1,2,3-triazol-4-yl)methyl)thio)-3H-[1,2,3]triazolo[4,5-b]pyridin-5-amine] | 6.70 to 7.22
24 | CS(=O)(=O)c1cc(Cl)ccc1CSc1cc(N)nc2[nH]nnc12 [Example 18, 7-((4-chloro-2-(methylsulfonyl)benzyl)thio)-3H-[1,2,3]triazolo[4,5-b]pyridin-5-amine] | ≥ 7.22
25 | N#Cc1cccc(Cl)c1CSc1cc(N)nc2[nH]nnc12 [Example 117, 2-(((5-amino-3H-[1,2,3]triazolo[4,5-b]pyridin-7-yl)thio)methyl)-3-chlorobenzonitrile] | ≥ 7.22
26 | Nc1cc(SCc2ccccc2CN2CCC2)c2nn[nH]c2n1 [Example 95, 7-((2-(azetidin-1-ylmethyl)benzyl)thio)-3H-[1,2,3] triazolo[4,5-b]pyridin-5-amine] | 6.70 to 7.22
27 | COc1ccc(CSc2cc(N)nc3[nH]nnc23)cc1 [Example 9, 7-((4-methoxybenzyl)thio)-3H-[1,2,3]triazolo [4,5-b]pyridin-5-amine] | ≥ 7.22
28 | Nc1cc(SCc2cc(OC(F)(F)F)ccc2F)c2nn[nH]c2n1 [Example 49, 7-((2-fluoro-5-(trifluoromethoxy)benzyl)thio)-3H-[1,2,3]triazolo[4,5-b]pyridin-5-amine] | 6.70 to 7.22
29 | Nc1cccc(CSc2cc(N)nc3[nH]nnc23)n1 [Example 27, 7-(((6-aminopyridin-2-yl)methyl)thio)-3H-[1,2,3] triazolo[4,5-b]pyridin-5-amine] | 6.00 to 6.70
30 | CC(Sc1cc(N)nc2[nH]nnc12)c1ccccc1C(F)(F)F (stereo not drawn) [Example 30, 7-((1-(2-(trifluoromethyl)phenyl)ethyl)thio)-3H-[1,2,3]triazolo[4,5-b]pyridin-5-amine] | 6.70 to 7.22
31 | Nc1cc(SCc2cc(Cl)cc(S(N)(=O)=O)c2Cl)c2nn[nH]c2n1 [Example 118, 3-(((5-amino-3H-[1,2,3]triazolo[4,5-b]pyridin-7-yl)thio)methyl)-2,5-dichlorobenzenesulfonamide] | ≥ 7.22
32 | Nc1cc(SCc2c(F)cc(Cl)cc2F)c2nn[nH]c2n1 [Example 23, 7-((4-chloro-2,6-difluorobenzyl)thio)-3H-[1,2,3]triazolo[4,5-b]pyridin-5-amine] | ≥ 7.22
33 | CC(Sc1cc(N)nc2[nH]nnc12)c1ccccc1S(C)(=O)=O (stereo not drawn) [Example 54, 7-((1-(2-(methylsulfonyl)phenyl)ethyl)thio)-3H-[1,2,3]triazolo[4,5-b]pyridin-5-amine] | 6.70 to 7.22
34 | CN(C)CCC(Sc1cc(N)nc2[nH]nnc12)c1ccccc1 (stereo not drawn) [Example 44, 7-((3-(dimethylamino)-1-phenylpropyl)thio)-3H-[1,2,3]triazolo[4,5-b]pyridin-5-amine] | 6.70 to 7.22
35 | N#Cc1ccc(C2CC2)c(CSc2nc(N)nc3[nH]nnc23)c1 [Example 161, 3-(((5-amino-3H-[1,2,3]triazolo[4,5-d]pyrimidin-7-yl)thio)methyl)-4-cyclopropylbenzonitrile] | 6.00 to 6.70
36 | Nc1cc(SCc2cccc3c2OC(F)(F)O3)c2nn[nH]c2n1 [Example 105, 7-(((2,2-difluorobenzo[d] [1,3]dioxol-4-yl)methyl)thio)-3H-[1,2,3]triazolo[4,5-b]pyridin-5-amine] | 6.70 to 7.22
37 | Cc1nn(Cc2ccccc2)c(Cl)c1CSc1nc(N)nc2[nH]nnc12 [Example 159, 7-(((1-benzyl-5-chloro-3-methyl-1H-pyrazol-4-yl)methyl)thio)-3H-[1,2,3] triazolo[4,5-d]pyrimidin-5-amine] | 6.00 to 6.70
38 | CS(=O)(=O)c1cccc(Cl)c1CSc1cc(N)nc2[nH]nnc12 [Example 102, 7-((2-chloro-6-(methylsulfonyl)benzyl)thio)-3H-[1,2,3]triazolo[4,5-b]pyridin-5-amine] | 6.70 to 7.22
39 | Nc1cc(SCc2ccccc2-c2ccccn2)c2nn[nH]c2n1 [Example 92, 7-((2-(pyridin-2-yl)benzyl)thio)-3H-[1,2,3]triazolo[4,5-b]pyridin-5-amine] | 6.70 to 7.22

Reference: patent US10981879B2, “Thioether triazolopyridine and triazolopyrimidine inhibitors of myeloperoxidase” (BRISTOL-MYERS SQUIBB COMPANY, priority 2014, dated 2021)
